The target in one test is T1, human VEGFR2 (Homo sapiens, UniProt P35968).
T1 construct: Fc (fusion partner)
Put plainly: Binding of cyclic peptide to human VEGFR2 by BLI method (ForteBio). The conditions noted are these: VEGFR2-Fc fusion immobilized, 30° C., read-out: koff, dissociation rate constant for human VEGFR2. How it is done:
(§1) A dissociation constant of binding between the cyclic peptide L1 or BL1 thus synthesized and human VEGFR2 or mouse VEGFR2 was determined by BLI method (ForteBio). A fusion protein of VEGFR2 and Fc was immobilized onto Anti-human IgG Capture Biosensors and the cyclic peptide L1 or BL1 varied in concentration was analyzed. The temperature was set at 30° C.

The test system of a further test is HUVEC. In kind it is cell-based, human. The following applies: 24 h. How it is done:
Next, growth inhibiting activity of L1 and BL1 against HUVEC was examined by BrdU method. HUVEC cells were treated for 30 minutes with a cyclic peptide L1 or BL1 varied in concentration and then, co-incubated with the cyclic peptide and 10 ng/mL of VEGF. Twenty four hours later, the cells were labeled with BrdU for 4 hours in the presence of the cyclic peptide and VEGF. Then, the resulting cells were fixed, stained with a peroxidase-conjugated anti-BrdU antibody, and peroxidase activity was detected using a tetramethylbenzidine color colorimetric substrate. The cells without peptide and VEGF treatments and the cells without only peptide treatment were used as a control.

Another test has as its target T2, mouse VEGFR2 (Mus musculus, UniProt P35918).
T2 construct: Fc (fusion partner)
Put plainly: Binding of cyclic peptide to mouse VEGFR2 by BLI method (ForteBio). The following applies: VEGFR2-Fc fusion immobilized, 30° C., read-out: koff, dissociation rate constant for mouse VEGFR2. The procedure: as §1
A general note: BLI is a label-free optical method that tracks binding on a fibre tip over time.

Test [1] has as its system HUVEC and human skin-derived fibroblasts. Put plainly: VEGF-dependent angiogenesis, Kurabo angiogenesis kit (HUVEC and human skin-derived fibroblast co-culture). In kind it is cell-based. The conditions noted are these: 10 μm-L1 administered group; 10 ng/mL VEGF, 11 days, anti-CD31 staining; compared with 50 μM Suramin. The procedure:
Next, angiogenesis kit of Kurabo was used to study the influence of L1 or BL1 on VEGF-dependent angiogenesis. HUVEC and human skin-derived fibroblasts were co-cultured in the presence of 10 ng/mL of VEGF and L1 or BL1 varied in concentration. After culturing at 37° C., supplementation with VEGF and peptide having the same concentration three days, six days, and eight days later, and fixation of the HUVEC cells 11 days later, the resulting cells were stained with an anti-CD31 antibody to visualize them and analyzed by making use of an image analysis service included in the kit. As a control, 50 μM of an angiogenesis inhibitor Suramin was added instead of the peptide.

Structures are written as SMILES. Starred links: 1 amine or outer side, 2 acyl side, 3 side chain; linkers in the order of their positions; H or OH if unused. Positions of bridges follow the written chain, without caps; N, C: chain ends. Residues, ends and D or L forms follow the SMILES beside them. X1 = O=C(C[*:2])Nc1cccc(C(=O)[*:1])c1

T1 sequence (P35968 20-764 limits assumed): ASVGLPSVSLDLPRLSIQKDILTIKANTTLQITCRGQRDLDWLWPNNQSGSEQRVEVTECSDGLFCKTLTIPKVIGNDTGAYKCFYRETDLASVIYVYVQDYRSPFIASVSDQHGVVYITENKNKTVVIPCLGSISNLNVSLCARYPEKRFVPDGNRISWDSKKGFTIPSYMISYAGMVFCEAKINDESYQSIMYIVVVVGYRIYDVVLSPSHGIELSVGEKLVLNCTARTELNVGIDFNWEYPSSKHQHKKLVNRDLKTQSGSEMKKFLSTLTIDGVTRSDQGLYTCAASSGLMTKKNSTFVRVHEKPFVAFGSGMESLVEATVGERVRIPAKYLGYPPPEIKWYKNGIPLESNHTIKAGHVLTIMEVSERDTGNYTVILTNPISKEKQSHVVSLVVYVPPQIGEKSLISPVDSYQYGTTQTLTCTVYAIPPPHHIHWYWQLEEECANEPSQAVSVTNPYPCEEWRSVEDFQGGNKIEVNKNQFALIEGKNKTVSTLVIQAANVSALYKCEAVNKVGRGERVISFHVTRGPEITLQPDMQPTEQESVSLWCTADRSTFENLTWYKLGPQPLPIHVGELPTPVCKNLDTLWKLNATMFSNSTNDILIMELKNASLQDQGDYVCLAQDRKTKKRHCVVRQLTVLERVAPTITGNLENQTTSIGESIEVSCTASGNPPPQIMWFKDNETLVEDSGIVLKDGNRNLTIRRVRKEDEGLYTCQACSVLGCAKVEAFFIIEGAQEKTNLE
T2 sequence (P35918 20-762 limits assumed): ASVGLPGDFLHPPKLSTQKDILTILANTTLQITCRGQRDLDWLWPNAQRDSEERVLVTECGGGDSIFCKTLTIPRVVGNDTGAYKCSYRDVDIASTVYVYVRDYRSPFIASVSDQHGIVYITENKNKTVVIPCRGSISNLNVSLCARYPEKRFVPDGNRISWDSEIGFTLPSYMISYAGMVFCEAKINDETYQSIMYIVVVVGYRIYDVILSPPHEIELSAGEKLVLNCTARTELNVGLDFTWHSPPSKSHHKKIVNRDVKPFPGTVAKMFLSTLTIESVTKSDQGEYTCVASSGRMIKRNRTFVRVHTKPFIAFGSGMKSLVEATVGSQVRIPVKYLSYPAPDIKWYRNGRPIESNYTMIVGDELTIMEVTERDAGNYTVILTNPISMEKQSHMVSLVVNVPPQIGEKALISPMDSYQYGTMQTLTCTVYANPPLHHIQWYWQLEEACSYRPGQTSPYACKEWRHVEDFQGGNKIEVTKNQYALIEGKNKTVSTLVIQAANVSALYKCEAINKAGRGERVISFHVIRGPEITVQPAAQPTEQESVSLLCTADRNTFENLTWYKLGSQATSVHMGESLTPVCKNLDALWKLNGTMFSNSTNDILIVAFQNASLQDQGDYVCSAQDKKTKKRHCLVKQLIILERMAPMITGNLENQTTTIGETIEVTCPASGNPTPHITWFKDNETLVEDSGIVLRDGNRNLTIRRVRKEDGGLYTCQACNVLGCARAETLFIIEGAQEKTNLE

With `CC[C@H](C)[C@@H]1NC(=O)[C@H](Cc2ccccc2)NC(=O)c2cccc(c2)NC(=O)CSC[C@@H](C(=O)NCC(N)=O)NC(=O)[C@H](CCCNC(=N)N)NC(=O)[C@H](CCC(=O)O)NC(=O)[C@H](CC(C)C)NC(=O)[C@H](CO)NC(=O)[C@H]([C@@H](C)CC)NC(=O)[C@@H]2CCCN2C(=O)[C@H](Cc2c[nH]cn2)NC(=O)[C@H](C(C)C)NC(=O)[C@H](CCCCN)NC(=O)[C@H](C(C)C)NC(=O)[C@H](CCCNC(=N)N)NC(=O)[C@H](Cc2ccc(O)cc2)NC(=O)[C@H](Cc2c[nH]cn2)NC(=O)CNC1=O` [BL1, MCAB-L-Phe-Ile-Gly-His-Tyr-Arg-Val-Lys-Val-His-Pro-Ile-Ser-Leu-Glu-Arg-Cys] (FIGHYRVKVHPISLERCG-NH2; linker N-17 via X1), the off-rate (koff) (in general, the rate constant with which the complex falls apart) on human VEGFR2 is 0.0009 s⁻¹; on mouse VEGFR2 it was 0.0008 s⁻¹. Further, it took 60 nM to reach half-maximal inhibition in the test with HUVEC (IC50).

Consider `CC[C@H](C)[C@@H]1NC(=O)[C@H](Cc2ccc(O)cc2)NC(=O)[C@H](CC(C)C)NC(=O)CNC(=O)[C@H](CC(N)=O)NC(=O)[C@H](C(C)C)NC(=O)[C@H](Cc2c[nH]c3ccccc23)NC(=O)[C@@H]2CCCN2C(=O)[C@H](CC(=O)O)NC(=O)[C@H]([C@@H](C)O)NC(=O)[C@H](CO)NC(=O)[C@H](C(C)C)NC(=O)[C@H](C(C)C)NC(=O)[C@H](C(C)C)NC(=O)[C@H](Cc2ccccc2)NC(=O)CSC[C@@H](C(=O)NCC(N)=O)NC(=O)[C@H](CC(=O)O)NC1=O` [L1, ClAc-L-Phe-Val-Val-Val-Ser-Thr-Asp-Pro-Trp-Val-Asn-Gly-Leu-Tyr-Ile-Asp-Cys], for which, in test [1], the angiogenesis inhibiting effect result is “angiogenesis inhibiting effect stronger than that of Suramin”. Moreover, on human VEGFR2, the off-rate (koff) amounted to 0.002 s⁻¹. For the same compound, in the test on HUVEC, the midpoint of inhibition, the IC50, lay at 60 nM.

The record behind these values is patent US9815867B2, “Peptide for inhibiting vascular endothelial growth factor receptor” (The University of Tokyo, priority 2012, dated 2017).
